Source: PMC4441817 (Bioorganic & medicinal chemistry letters, 2012)

How the values were obtained:
[1] = test system: protein farnesylation or geranylgeranylation; experiment: Cellular assays of protein farnesylation or geranylgeranylation; assay type: cell-based; details: data not shown
[2] = test system: human myeloma RPMI-8226 cell line; details: RPMI-8226 cells, 48 hr incubation
[3] = test system: human myeloma RPMI-8226 cell line; experiment: cells; details: RPMI-8226, 48 h, read-out: MTT IC50
[4] = target: T1, geranylgeranyl transferase II (GGTase II) (Homo sapiens, UniProt P53611+Q92696); assay type: biochemical; details: recombinant enzyme
T1 sequence (Q92696 1-567): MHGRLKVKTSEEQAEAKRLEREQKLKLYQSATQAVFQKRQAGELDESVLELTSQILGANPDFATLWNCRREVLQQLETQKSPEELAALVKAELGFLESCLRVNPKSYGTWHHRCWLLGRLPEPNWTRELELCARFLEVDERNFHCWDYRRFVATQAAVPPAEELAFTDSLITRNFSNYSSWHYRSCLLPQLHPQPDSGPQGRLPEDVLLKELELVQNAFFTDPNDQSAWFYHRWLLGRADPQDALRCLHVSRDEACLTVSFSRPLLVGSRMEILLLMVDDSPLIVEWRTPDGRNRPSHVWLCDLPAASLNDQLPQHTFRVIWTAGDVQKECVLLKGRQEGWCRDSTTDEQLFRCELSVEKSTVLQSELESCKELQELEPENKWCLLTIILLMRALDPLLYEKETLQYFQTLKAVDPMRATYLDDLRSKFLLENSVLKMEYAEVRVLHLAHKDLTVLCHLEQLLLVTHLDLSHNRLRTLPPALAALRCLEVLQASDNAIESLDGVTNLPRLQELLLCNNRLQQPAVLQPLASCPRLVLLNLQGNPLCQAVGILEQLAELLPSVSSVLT
T1 sequence (P53611 1-331): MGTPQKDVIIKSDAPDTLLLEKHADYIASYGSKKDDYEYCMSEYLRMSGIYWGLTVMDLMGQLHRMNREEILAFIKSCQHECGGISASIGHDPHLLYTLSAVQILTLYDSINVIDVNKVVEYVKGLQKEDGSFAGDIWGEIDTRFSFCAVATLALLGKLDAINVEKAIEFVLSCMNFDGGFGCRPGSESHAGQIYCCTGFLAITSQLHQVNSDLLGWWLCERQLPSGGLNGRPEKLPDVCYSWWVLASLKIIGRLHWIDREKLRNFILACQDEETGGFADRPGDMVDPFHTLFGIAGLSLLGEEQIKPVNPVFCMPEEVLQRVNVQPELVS

GGTase II = details: cited from earlier work
[5] = cited from earlier work

IC50 [3] [µM]	activity as a GGTase II inhibitor (in words) [4]	SMILES	other results
1000	most active compound	CC(C)=CCC/C(C)=C/CC/C(C)=C/CCC(C)=CCn1cc(CC(P(=O)([O-])[O-])P(=O)([O-])[O-])nn1.[Na+].[Na+].[Na+].[Na+] [Compound 11e]	–
> 1000	no activity	CC(C)=CCCC(C)=CCn1cc(CC(P(=O)([O-])[O-])P(=O)([O-])[O-])nn1.[Na+].[Na+].[Na+].[Na+] [Compound 11c]	–
> 1000	–	O=P(O)(O)C(Cc1cn(Cc2ccccc2)nn1)P(=O)(O)O [Compound 11a]	–
900	modest activity	CC(C)=CCC/C(C)=C/CCC(C)=CCn1cc(CC(P(=O)([O-])[O-])P(=O)([O-])[O-])nn1.[Na+].[Na+].[Na+].[Na+] [Compound 11d]	–

Further lines, the molecule ahead of its results:

SMILES	IC50 [3] [µM]	activity as a GGTase II inhibitor (in words) [4]	other results
O=P([O-])([O-])C(Cc1cn(Cc2ccc3ccccc3c2)nn1)P(=O)([O-])[O-].[Na+].[Na+].[Na+].[Na+] [Compound 11b]	200	–	effect on protein farnesylation or geranylgeranylation [1]: does not affect protein farnesylation or geranylgeranylation; cytotoxic potency in the MTT assay (in words) [2]: most potent
O=C(O)C(O)(Cc1cnc2ccccn12)P(=O)(O)O (single isomer, unassigned; (+)) [(+)-3-IPEHPC]	–	–	potency relative to 3-PEHPC (GGTase II): more potent than 3-PEHPC; type of inhibition with respect to GGPP (GGTase II): mixed-type inhibitor; type of inhibition with respect to Rab (GGTase II): uncompetitive inhibitor
O=C(O)C(O)(Cc1cccnc1)P(=O)(O)O (stereo not drawn) [Compound 3-PEHPC]	–	–	selectivity for GGTase II (in words) (GGTase II): good selectivity for GGTase II; concentrations required to observe cellular effects [5]: millimolar concentrations are required
